Here are results for one molecule from US20110044991A1, “METHODS AND COMPOSITIONS FOR TREATING LYMPHOMA AND MYELOMA” (IRM LLC, priority 2006, published 2011).

Test [1] deals with Myc-Ly6 cells overexpressing Smo, Smo535, Smo562, Gli1 or Fused. Put plainly: Luciferase assay with lymphoma cells overexpressing Hh pathway members on stromal layer. It is filed as cell-based, mouse. Particulars: for IC50: Mus musculus, 48 h. The protocol:
For Shh pathway inhibition on stroma, 6200 stroma cells were seeded per 96-well. After 24 hours 20,000 luciferased lymphoma cells were seeded on the stroma cells and 2 hours later compound or DMSO was added. Luciferase assay was performed with Bright-glow reagent as described. To generate cells overexpressing Hh pathway members, lymphoma cells were infected with Smo, Smo 535, Smo 562, Gli1 and Fused-pMSCV IRES GFP constructs and then sorted for GFP positive cells.

The subject of a further test is Gli1, Ptch1, Bcl2. The test is described as follows: Hh target expression in lymphoma cells (Western blot, quantitative RT-PCR). Type of test: cell-based, mouse. The method, then:
Western immunoblot: Whole-cell lysates were sonicated in 2% SDS/50 mM TrisHCl, pH8. Western blot using rabbit or goat polyclonal antibodies for Shh-N, c-Myc, Smo, Gli1 were performed as described. Shh-N, c-Myc and Smo antibodies were obtained from Santa Cruz Biotechnology, Gli1 (ab7523) antibody was obtained from Abcam Inc. (Cambridge, Mass.).
RT-PCR: Total cellular RNA was treated with DNase, reverse transcribed, amplified for 33 cycles at an annealing temperature of 55° C. Primers used were obtained from Integrated DNA Technologies (Coralville, Iowa).
To further substantiate a role for Hh/SMO signalling in Eμ-Myc and CDKN2a^−/− positive lymphoma we determined the expression of Hh pathway members in the lymphoma cells itself. Transcripts of all essential Hh pathway members (Smo, Ptc1, Ptc2, Gli1, and Gli2) were expressed in B-cell lymphomas, plasmoblastomas and plasmacytomas (FIG. 2E). Gli1 and Ptch represent direct target genes of the Hh pathway itself and are regulated at the transcriptional level by Hh signalling. […] Ptch1 transcript levels were decreased 10-fold within 18 h of pathway inhibition (FIG. 2G). Other target genes of the Hh pathway like Hip and Cyclin D1 could also be detected in the majority of lymphoma cells. […] All 3 Gli proteins have evolved specialized functions with distinct temporal and tissue-specific expression patterns. Unlike Gli1, which represents a direct transcriptional Hh-target gene, Gli2 and also Gli3 are considered latent transcriptional regulators activated by Hh signalling through modification of their N-terminal repressor domain.
(In general: In western blotting, separated proteins are transferred to a membrane and probed.)

Test [2] deals with Eμ-Myc lymphoma cells. Put plainly: Luciferased lymphoma cells injected into C57BL/6 mice, treatment from day 2. Type of test: in vivo, mouse. The method, then:
D: injection of 1 Mio luciferased lymphoma cells in C57B16 mice.
Mouse experiments: Black6 mice between 6 and 8 weeks of age were injected with 1 Mio luciferased lymphoma cells. […] Bioluminescence was measured with injection of […].
In order to verify the importance of the Hh pathway for lymphoma growth and expansion in mice, we injected 1e6 lymphoma cells expressing luciferase into syngeneic C57BL/6 mice. […] Luciferase levels were measured by bioluminescence imaging twice a week.

The test system of test [3] is lymphoma cells. The test is described as follows: Annexin V staining, flow cytometry. It is filed as cell-based, mouse. Conditions: 5 μM. A general note: A flow cytometer gives signals particle by particle.
The test system of test [4] is Eμ-Myc lymphoma cells. The test is described as follows: Shh-induced proliferation of lymphoma cells without stromal layer, Alamar Blue assay. It is filed as cell-based, mouse. Conditions: Shh 10 μM over 48 h; 5E1 10 μg/ml, cyclopamine 5 μM. The protocol: Luminescence was measured after 0 h, 24 h and 48 h after seeding of 2×10E4 luciferased lymphoma cells on the stroma cells; and F: RT-PCR analysis of transcripts from Hh pathway members and targets in spleen lymphocytes and different lymphoma cell lines.
Cell culture experiments: Lymphoma cells were infected with a retrovirus containing a pMSCV IRES puro-luc sequence and selected for 7 days with puromycin on puromycin-resistant Cdkn2a−/− stroma. […] Both were dissolved as x 1,000 stocks in DMSO. SCF was obtained from RDI, and all other cytokines were obtained from R&D systems. 5E1 anti-ShhN monoclonal antibody was obtained from the developmental hybridoma bank and was used at a concentration of 10 μg/ml. For cytokine stimulation and Shh inhibition in supernatant lymphoma cells were seeded into 96-well plates at a density of 20,000 cells per well and mitochondrial activity of viable cells was measured with an Alamar Blue Assay as described.
On the technique in general: The colour change of resazurin is a common sign of viable cells or microbes.

The subject of test [5] is lymphoma cells. The test is described as follows: Cell cycle distribution of gated viable cells. Type of test: cell-based, mouse. Particulars: after 12 hours of treatment; 20.4% before.
Test [6] relates to Myc lymphoma cells (p53−/−, Cdkn2a−/−, Bcl2+, Bax−/−, Caspase3−/−). Particulars: for apoptosis: 5 μM, 48 hours. The text has this:
Genetically altered mice and culture of primary cells: Eμ-Myc mice (Adams et al., Nature 318: 533-53824, 1985), Cdkna^−/− mice (Serrano et al., Cell. 85:27-3725, 1996), Bax^−/− mice (The Jackson Laboratory, Bar Harbor, Me.), Caspase3^−/− mice (The Jackson laboratory), p53^−/− mice (The Jackson Laboratory) and Bcl2 tg mice (The Jackson laboratory) were maintained and genotyped as described. Eμ-Myc mice and Cdkn2a−/− mice were monitored for signs of disease including development of visible lymphomas or weight loss from more than 15%. Mice with terminal disease were sacrificed, bone marrow, spleen and lymph nodes were extracted and lymphoma cells were propagated under Witlock/Witte culture conditions. For maintained growth cells were transferred on bone marrow stroma from Cdkn2a−/− mice after 2-3 weeks of culture. For generation of lymphomas with defined genetic background, bone marrow from p53−/− mice, Caspase3−/− mice, Bax−/− mice, Cdkn2a−/− mice and Bcl2 tg mice was extracted and pMSCV c-Myc IRES GFP was overexpressed. Propagation of transformed lymphocytes was performed under Witlick/Witte culture conditions and lymphomas were maintained on stroma from Cdkn2a−/− mice.
To better understand which specific pathways are involved in the regulation of growth and survival through Hh signalling in lymphoma cells, lymphoma cell cultures were generated in multiple different genetic backgrounds in order to modify either apoptotic or failsafe pathways. Bone marrow extracted from wt C57BL/6, Bcl2 transgenic, Bax^−/− Caspase-3^−/−, CDKN2a^−/− and p53^−/− mice was infected with pMSCV-Myc-GFP and transformed lymphocyte cultures were obtained using Whitlock/Witte culture conditions in the absence of IL-7. […] Similar to cultures established from primary lymphomas, lymphocytes transformed by retroviral transduction were transferred to bone marrow stroma of CDKN2a^−/− mice for longer term culture.

Like-named read-outs stand apart in the source and are kept apart here.

In the case of `CC1=C2C[C@H]3[C@@H](CC=C4C[C@@H](O)CC[C@@]43C)[C@@H]2CC[C@]12O[C@@H]1C[C@H](C)CN[C@H]1[C@H]2C` [cyclopamine], the half-inhibitory concentration (IC50) (usually the concentration that inhibits the measured activity by half) is 1 µM in test [1] (cyclopamine sensitive lymphoma cell lines without overexpression); greater than 10 µM in test [1] (overexpression of Fused); greater than 10 µM in test [1] (overexpression of Gli1); 4.5 µM in test [1] (overexpression of Smo A562G); 3.5 µM in test [1] (overexpression of Smo W535L); 3 µM in test [1] (overexpression of Smo wt). In addition, the “apoptosis induction by cyclopamine” value in test [1] (overexpression of Fused) was “nearly complete inhibition of apoptosis induction”. Besides, in test [1] (overexpression of Gli1), the “response of Myc-Ly6 to cyclopamine treatment” value is “partial resistance”. For the same molecule, the “Bcl2 in Myc-lymphomas” value with Gli1, Ptch1, Bcl2 (after cyclopamine treatment, Western blot) was “downregulated”. Further, the “decrease of Ptch1 transcript levels” value in the test on Gli1, Ptch1, Bcl2 (within 18 h of pathway inhibition, 5 μM) was 10 fold. In addition, the “Gli1 protein in lymphoma cells” value with Gli1, Ptch1, Bcl2 (within 24 hours, compared to actin control) was “reduction of detectable Gli1 protein”. This molecule also gave a median survival in the test with Eμ-Myc lymphoma cells [2] (25 mg/kg/day s.c., max 21 days, control group 16 days) of 20 days. Also, the “signs of disease (bioluminescence imaging)” value in the test on Eμ-Myc lymphoma cells [2] (50 and 100 mg/kg/day s.c. from day 2, twelve days post-injection) is given as “only minimal signs of disease”. Moreover, the “response (survival curves)” value with Eμ-Myc lymphoma cells [2] (lymphoma with in vitro resistance and overexpression of Gli3, 100 mg/kg/day) was “only minimal response”. In addition, the response in vivo entry with Eμ-Myc lymphoma cells [2] (two additional lymphoma cells (1 plasmoblastoma and 1 B-cell lymphoma), similar conditions) was “responsive in vivo”. The “apoptotic cells (annexin V)” value is recorded as roughly 100% in the test with lymphoma cells [3] (after 48 hours) and “more than 50%” in the test on lymphoma cells [3] (within 12 hours). Also, in the test on Eμ-Myc lymphoma cells [4], the “inhibition of Shh-induced proliferation” value was “inhibited”. Besides, the “G2/M phase of remaining viable cells” value with lymphoma cells [5] is 13.3%. Moreover, the cyclopamine induced apoptosis result in test [6] (Myc/Bax−/− cells) and in test [6] (Myc/Caspase 3−/− cells) was “partial resistance” in each case. Also, the apoptosis result in test [6] (Myc/Cdkn2a−/− lymphoma cells) and in test [6] (Myc/p53−/− lymphoma cells) was “induced apoptosis” throughout.
